Assay results as given in patent publication US12545658B2, “Pyridine derivatives as calcium-activated chloride channel modulators” (TMEM16A LIMITED, priority 2019, dated 2026).

Target: T1, human TMEM16A (TMEM16Aabc variant) (Homo sapiens, UniProt Q5XXA6)
T1 construct: human TMEM16A (TMEM16Aabc variant)
T1 sequence (Q5XXA6 1-986): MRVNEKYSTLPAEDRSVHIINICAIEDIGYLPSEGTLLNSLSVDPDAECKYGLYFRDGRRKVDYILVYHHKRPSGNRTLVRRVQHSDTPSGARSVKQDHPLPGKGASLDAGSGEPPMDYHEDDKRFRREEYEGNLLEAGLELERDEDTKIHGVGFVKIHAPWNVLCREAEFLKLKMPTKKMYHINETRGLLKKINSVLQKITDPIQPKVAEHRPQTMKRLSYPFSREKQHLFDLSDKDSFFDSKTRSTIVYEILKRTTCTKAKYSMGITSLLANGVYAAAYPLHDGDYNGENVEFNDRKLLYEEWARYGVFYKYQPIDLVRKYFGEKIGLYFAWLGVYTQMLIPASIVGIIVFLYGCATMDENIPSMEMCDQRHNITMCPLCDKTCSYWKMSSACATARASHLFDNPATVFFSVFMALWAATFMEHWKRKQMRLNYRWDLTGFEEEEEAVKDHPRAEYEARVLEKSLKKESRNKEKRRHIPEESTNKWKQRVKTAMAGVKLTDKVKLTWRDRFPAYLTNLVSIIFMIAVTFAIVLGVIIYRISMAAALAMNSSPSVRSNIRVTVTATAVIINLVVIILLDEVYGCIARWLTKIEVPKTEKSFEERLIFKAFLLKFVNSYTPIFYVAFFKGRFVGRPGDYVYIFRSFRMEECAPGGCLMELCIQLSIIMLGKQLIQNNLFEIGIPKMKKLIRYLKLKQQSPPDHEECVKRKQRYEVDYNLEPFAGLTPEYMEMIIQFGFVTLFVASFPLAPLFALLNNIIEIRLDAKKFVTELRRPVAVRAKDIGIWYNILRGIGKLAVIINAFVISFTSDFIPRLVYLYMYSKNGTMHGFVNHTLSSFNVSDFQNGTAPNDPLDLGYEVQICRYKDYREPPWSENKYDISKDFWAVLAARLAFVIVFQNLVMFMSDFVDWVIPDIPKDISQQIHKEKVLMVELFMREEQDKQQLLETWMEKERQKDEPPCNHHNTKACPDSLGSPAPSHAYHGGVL
Assay: Automated whole-cell patch clamp (QPatch) TMEM16A potentiator assay in FRT cells stably expressing human TMEM16A
Format: cell-based
Conditions: for QPatch TMEM16A % Potentiation @ 370 nM: 370 nM test compound; for QPatch TMEM16A % Potentiation @ 370 nM / QPatch TMEM16A % Potentation @ 3.3 μM: percentage increase of baseline TMEM16A current; for QPatch TMEM16A % Potentation @ 3.3 μM: 3.3 μM test compound; for EC50: FRT-TMEM16A cells, whole-cell patch clamp, peak current at +70 mV, intracellular calcium at EC20
Procedure: Fisher rat thyroid (FRT) cells stably expressing human TMEM16A (TMEM16Aabc variant; Dr Luis Galietta, Insituto Giannina, Italy) were cultured in T-75 flasks in Hams F-12 media with Coon's modification (Sigma) supplemented with 10% (v/v) foetal bovine serum, penicillin-streptomycin (10,000 U/mL/10000 μg/mL), G-418 (750 μg/mL), L-glutamine (2 mM) and sodium bicarbonate solution (7.5% v/v). At ˜90% confluence cells were harvested for experiments by detachment with a 2:1 (v/v) mixture of Detachin (BMS Biotechnology) and 0.25% (w/v) trypsin-EDTA.
FRT-TMEM16A cells were whole-cell patch clamped using an automated planar patch clamp system (Qpatch, Sophion). Briefly, once high resistance (GOhm) seals were established between the cells and the planar recording array the patch was ruptured using suction pulses to establish the whole-cell recording configuration of the patch clamp technique. The assay employed the following solutions (all reagents Sigma): Intracellular solution (mM): N-methyl-D-glucamine 130, CaCl2 18.2, MgCl2 1, HEPES 10, EGTA 10, BAPTA 20, Mg-ATP 2, pH 7.25, 325 mOsm with sucrose.
Extracellular solution (mM): N-methyl-D-glucamine 130, CaCl2 2, MgCl2 1, HEPES 10, pH 7.3, 320 mOsm with sucrose.
The intracellular solution buffers intracellular calcium at levels required to give ˜20% activation of the maximal TMEM16A mediated current (EC20 for calcium ions). Cells were voltage clamped at a holding potential of −70 mV and a combined voltage step (to +70 mV)/ramp (−90 my to +90 mV) was applied at 0.05 Hz. After a period of current stabilisation test compounds, solubilised in 100% (v/v) DMSO and subsequently diluted into extracellular solution, were applied to generate a cumulative concentration response curve. Each concentration of test compound was incubated for 5 minutes before addition of the next concentration. After the final concentration was tested a supramaximal concentration of either a known active positive modulator or the TMEM16A inhibitor, CaCCinhA01 (Del La Fuente et al, 2008) was added to define the upper and lower limits of the assay.
Compound activity was quantified by measuring the increase in current upon compound addition and expressing this as a percentage increase of baseline TMEM16A current level.
In FIG. 1, IBL equals baseline current, I[#1] equals the peak current during test compound concentration 1 incubation period and so on.
Peak TMEM16A current at +70 mV was plotted as a function of time over the assay period. Baseline current (IBL) was measured after a period of stabilisation. The increase in current for each compound addition was determined by taking the peak current during the incubation period and subtracting the current from the previous recording period and then expressing this as a percentage of the baseline current (% potentiation). For test compound concentration 1 in FIG. 1 this is: (I[#1]−IBL/IBL)×100 For each additional concentration tested the increase in current was determined by subtracting the current from the previous incubation period and normalising the baseline value—for test concentration 2 in FIG. 1 this is: (I[#2]−I[#1])/IBL)×100 The values for each test concentration were plotted as a cumulative function of concentration eg. for test concentration two this would be the sum of the peak changes measured during concentration one plus concentration two.

QPatch TMEM16A % Potentiation @ 370 nM [%] | QPatch TMEM16A % Potentation @ 3.3 μM [%] | EC50 [nM] | EC50 compared with Compound B (indole compounds versus comparator Compound B) | maximum potentiation of TMEM16A compared with Compound B (versus comparator Compound B) | Structure (SMILES)
43 | 223 | 1930 | – | – | C#CC(C)(C)NC(=O)c1cc(NC(=O)Cc2cccc3[nH]ncc23)ccn1 [Compound A, reference compound]
50 | 38 | 20 | lower EC50 values than Compound B | – | C#CC(C)(C)NC(=O)c1cc(NC(=O)Cc2ccc3cc[nH]c3c2)ccn1 [Example 1, N-(1,1-Dimethylprop-2-ynyl)-4-[[2-(1H-indol-6-yl)acetyl]amino]pyridine-2-carboxamide]
145 | 173 | 70 | – | improved maximum potentiation of TMEM16A | O=C(Cc1ccc2cc[nH]c2c1)Nc1ccnc(C(=O)NC2(C(F)(F)F)CC2)c1 [Example 1.1, 4-[[2-(1H-indol-6-yl)acetyl]amino]-N-[1-(trifluoromethyl)cyclopropyl]pyridine-2-carboxamide]
87 | 131 | 180 | – | – | CC(C)(C)NC(=O)c1cc(NC(=O)Cc2ccc3cn[nH]c3c2)ccn1 [Example 2, N-tert-Butyl-4-[[2-(1H-indazol-6-yl)acetyl]amino]pyridine-2-carboxamide]
68 | 96 | 20 | – | – | C#CC(C)(C)NC(=O)c1cc(NC(=O)Cc2ccc3cn[nH]c3c2)ccn1 [Example 3, N-(1,1-Dimethylprop-2-ynyl)-4-[[2-(1H-indazol-6-yl)acetyl]amino]pyridine-2-carboxamide]
96 | 237 | 10 | – | – | C#CC1(NC(=O)c2cc(NC(=O)Cc3ccc4cn[nH]c4c3)ccn2)CCCC1 [Example 4, N-(1-Ethynylcyclopentyl)-4-[[2-(1H-indazol-6-yl)acetyl]amino]pyridine-2-carboxamide]
96 | 118 | 90 | – | – | CC(C)(NC(=O)c1cc(NC(=O)Cc2ccc3cn[nH]c3c2)ccn1)C(F)(F)F [Example 4.1, 4-[[2-(1H-Indazol-6-yl)acetyl]amino]-N-(2,2,2-trifluoro-1,1-dimethyl-ethyl)pyridine-2-carboxamide]
112 | 155 | 100 | – | – | O=C(Cc1ccc2cn[nH]c2c1)Nc1ccnc(C(=O)NC2(C(F)(F)F)CC2)c1 [Example 4.2, 4-[[2-(1H-Indazol-6-yl)acetyl]amino]-N-[1-(trifluoromethyl)cyclopropyl]pyridine-2-carboxamide]
173 | 226 | 50 | – | – | CC1(NC(=O)c2cc(NC(=O)Cc3ccc4cn[nH]c4c3)ccn2)CC(F)(F)C1 [Example 4.3, N-(3,3-Difluoro-1-methyl-cyclobutyl)-4-[[2-(1H-indazol-6-yl)acetyl]amino]pyridine-2-carboxamide]
80 | 104 | 110 | – | – | CC(C)(NC(=O)c1cc(NC(=O)Cc2ccc3cn[nH]c3c2)ccn1)C(F)F [Example 5, N-(2,2-Difluoro-1,1-dimethyl-ethyl)-4-[[2-(1H-indazol-6-yl)acetyl]amino] pyridine-2-carboxamide]
76 | 110 | 150 | – | – | O=C(Cc1ccc2cn[nH]c2c1)Nc1ccnc(C(=O)NC2(C(F)(F)F)CCC2)c1 [Example 5.1, 4-[[2-(1H-Indazol-6-yl)acetyl]amino]-N-[1-(trifluoromethyl)cyclobutyl]pyridine-2-carboxamide]
69 | 113 | 250 | – | – | O=C(Cc1ccc2cn[nH]c2c1)Nc1ccnc(C(=O)NC2CCCC2(F)F)c1 (centres unmarked) [Example 5.3, N-(2,2-Difluorocyclopentyl)-4-[[2-(1H-indazol-6-yl)acetyl]amino]pyridine-2-carboxamide]
